Assay results taken from ChEMBL document CHEMBL5550158, “Novel 4-triazole phenyl amide (4-TPA) molecules: Potent promoters of α-synuclein fibril disassembly” (Eur J Med Chem, 2024).
Activity calls are given as the source filed them. No cut-off for these calls is given here.

Tests used:
SH-SY5Y [1] = test: Cytotoxicity against PFF-induced human SH-SY5Y cells assessed as increase in LDH release incubated for 24 hrs by fluorescence based analysis; type: functional
SH-SY5Y [2] = test: Neuroprotective activity against PFF-induced human SH-SY5Y cells assessed as decrease in autophagosome level measured for 6 hrs by MDC fluorescence assay; type: functional, cell-based
SH-SY5Y [3] = test: Neuroprotective activity against PFF-induced human SH-SY5Y cells assessed as diffusion of Cy5-PFF and lysosome into cytoplasm measured for 12 hrs by olympus confocal microscopic analysis; type: functional, cell-based
SH-SY5Y [4] = test: Induction of ROS level in PFF-induced human SH-SY5Y cells measured for 12 hrs by DCFH-DA staining based analysis; type: functional, cell-based
[5] = Half life in ICR mouse at 10 mg/kg, iv measured upto 7 hrs by HPLC analysis; type: ADME, organism-based; conditions: in vivo
[6] = Clearance in ICR mouse plasma at 10 mg/kg, iv measured upto 7 hrs by HPLC analysis; type: ADME, organism-based
[7] = Half life in ICR mouse at 10 mg/kg, ip measured upto 7 hrs by HPLC analysis; type: ADME, organism-based; conditions: in vivo
[8] = Clearance in ICR mouse plasma at 10 mg/kg, ip measured upto 7 hrs by HPLC analysis; type: ADME, organism-based; conditions: in vivo
[9] = AUC (0 to infinity) in ICR mouse at 10 mg/kg, iv measured upto 7 hrs by HPLC analysis; type: ADME, organism-based; conditions: in vivo
[10] = AUC (0 to infinity) in ICR mouse at 10 mg/kg, ip measured upto 7 hrs by HPLC analysis; type: ADME, organism-based; conditions: in vivo
[11] = Bioavailability in ICR mouse at 10 mg/kg, ip or 10 mg/kg, iv measured upto 7 hrs by HPLC analysis; type: ADME, organism-based; conditions: in vivo
[12] = Tmax in ICR mouse at 10 mg/kg, ip measured upto 7 hrs by HPLC analysis; type: ADME, organism-based; conditions: in vivo
[13] = Drug concentration in ICR mouse plasma at 10 mg/kg, iv by LC-MS/MS analysis; type: ADME, organism-based; conditions: in vivo
[14] = Drug concentration in ICR mouse brain at 10 mg/kg, iv by LC-MS/MS analysis; type: ADME, organism-based; conditions: in vivo
[15] = Ratio of drug concentration in ICR mouse brain to plasma at 10 mg/kg, iv by LC-MS/MS analysis; type: ADME, organism-based; conditions: read-out: BPR

Structure (SMILES) | Activity (SH-SY5Y [1]) [%] | Activity (SH-SY5Y [2]) | Activity (SH-SY5Y [3]) | Activity (SH-SY5Y [4]) | half-life [5] [min] | clearance [6] [L/h/kg] | half-life [7] [min] | CL [8] [L/h/kg] | AUC(0-inf) [9] [µg·h/mL] | AUC [10] [mg·min/L] | bioavailability [11] [%] | Tmax [12] [min] | Cp [13] [µg/mL] | Ct [14] [µg/mL] | Kp [15]
COc1cc([N+](=O)[O-])ccc1-n1cc(-c2ccc(NC(=O)c3ccc(NC(C)=O)cc3)cc2)nn1 | ~30 | Active | Active | inactive | 48 | 0.24 | 69 | 0.12 | 41.3 | 1793.287 | 72.4 | 30 | 17.18 | 1.76 | 0.1
COc1ccc(-n2cc(-c3ccc(NC(=O)c4cc(Br)cc(OC)c4)cc3)nn2)cc1 | ~30 | inactive | – | – | – | – | – | – | – | – | – | – | – | – | –
